Test results published in patent US20040072222A1, “Peptide analogues of myelin basic protein epitopes in the treatment of experimental autoimmune encephalomyelitis (eae) and multiple sclerosis (ms)” (priority 2003, published 2004).
Entries after “also recorded” stand apart in the source; their conditions may differ. Read-outs that look alike come from different tables or passages of the source. Where no end group is shown, it is not given here.

Experiments:
[1] = tested on: EAE in Lewis rats; assay: Induction-inhibition and assessment of EAE (clinical score); type: in vivo; conditions: for induction of EAE: injected subcutaneously in Lewis rats; for peak clinical score, day following the initial injection / recovery from EAE: injected subcutaneously in Lewis rats (section B2); for inhibition of MBP72-85-induced EAE on co-injection: analogue 500 μg co-injected with MBP72-85 25 μg, FIG. 2/3; for inhibition of MBP72-85-induced EAE (clinical signs) on co-injection: co-injected with MBP72-85, Lewis rats
[2] = tested on: human peripheral blood T cells; assay: Activation and proliferation of human peripheral blood T cells; type: cell-based; conditions: for effect on human T cell activation and proliferation: agonist peptides, linear vs cyclic; for biological activity in human peripheral blood T cells relative to linear analogue: compared with linear MBP72-85 / Ala81MBP72-85; for reversal of agonist effect on human T cell activation and proliferation: co-culturing of the cells with antagonist peptide
[3] = tested on: EAE in Lewis rats; conditions: cited from earlier work
[4] = tested on: demyelination and inflammation in the spinal cord; assay: Histopathological examination of spinal cord sections (Luxol fast blue / Nuclear Fast Red); type: in vivo, Lewis rats; conditions: for spinal cord demyelination and inflammation on co-immunization with MBP72-85: day 15 after immunization

With “Gln^1-Lys^2-Ser^3-Gln^4-Arg^5-Ser^6-Gln^7-Asp^8-Glu^9-Asn^10-Pro^11-Val^12-NH2 [c-MBP72-85]” the “induction of EAE” value [1] was “induce EAE”, the “peak clinical score, day following the initial injection” value [1] was 15 days and the “recovery from EAE” value [1] was “eventual complete recovery in all animals”. The “induction of EAE” value ([1]; listed as 1) was “comparable with that of linear agonist”, the “effect on human T cell activation and proliferation” value [2] was “comparable effect” and the “biological activity in human peripheral blood T cells relative to linear analogue” value [2] was “comparable”. The “induction of EAE” value ([3]; background, literature) was “comparable potency to MBP72-85”.
In the case of “Gln-Lys-Ser-Gln-Arg-Ser-Gln-Ala^81-GluAsn-Pro-Val [Ala^81MBP72-85]”, the “suppression of EAE induced by cyclic analogue on co-injection” value ([1]; co-injection with the inducing cyclic analogue) is reported as “completely suppressed”, the “spinal cord demyelination and inflammation on co-immunization with MBP72-85” value [4] is reported as “complete absence of inflammation and demyelination” and the “reversal of agonist effect on human T cell activation and proliferation” value [2] is reported as “completely reversed”. The “prevention of clinical and histopathological manifestations of disease induced by c-MBP72-85” value ([3]; Tselios et al 1999) was “prevented” and the “prevention of the induction of EAE by parent peptide MBP72-85” value ([3]; background, literature) was “prevented the induction of EAE”.
With “Val^87-His-Phe-Phe-Arg^91-Asn-Ile-Val-Thr-Ala^96-Arg-Thr-Pro^99 [cyclo-(87, 99)[Arg^91,Ala^96]MBP87-99]” the “inhibition of MBP72-85-induced EAE on co-injection” value [1] was “strong inhibitor” and the “inhibition of MBP72-85-induced EAE (clinical signs) on co-injection” value (“inhibition … (clinical signs) on co-injection” for short) [1] was “completely prevented”.
With “Val-His-Phe-Phe-Lys^91-Asn-Ile-Val-Thr-Ala^96-Arg-Thr-Pro^99 [cyclo-(91, 99) [Ala^96] MBP87-99]” the “inhibition of MBP72-85-induced EAE on co-injection” value [1] was “low inhibitory activity”.
For “Val-His-Phe-Phe-Arg^91-Asn-Ile-Val-Thr-Ala^96-Arg-Thr-Pro [[Arg^91,Ala^96]MBP87-99]”, the “inhibition of MBP72-85-induced EAE on co-injection” value [1] was “completely prevented” and the “inhibition … (clinical signs) on co-injection” value [1] was “completely prevented”.
In the case of “Gln^1-Lys^2-Ser^3-Gln^4-Arg^5-Ser^6-Gln^7-Ala^8-Glu^9-Asn^10-Pro^11-Val^12-NH2 [c-Ala^81MBP72-85]”, the “inhibition … (clinical signs) on co-injection” value [1] is reported as “completely prevented”, the “spinal cord demyelination and inflammation on co-immunization with MBP72-85” value [4] is reported as “completely prevented” and the “reversal of agonist effect on human T cell activation and proliferation” value [2] is reported as “completely reversed”. For the same substance, the “biological activity in human peripheral blood T cells relative to linear analogue” value [2] was “comparable”.
With “QKSQRSQDENPV [MBP72-85, reference compound]” the “complete recovery in all animals” value ([1]; 25 μg peptide) was at most 18 days, the “peak clinical score, day after the initial injection” value ([1]; 25 μg peptide) was 13 days and the “induction of EAE” value [1] was “induced an acute monophasic disease; also recorded: induce EAE”. For the same substance, the “peak clinical score, day following the initial injection” value [1] was 15 days, the “recovery from EAE” value [1] was “eventual complete recovery in all animals” and the “spinal cord histopathology after immunization with the peptide alone” value ([4]; day 15 / peak of disease) was “extensive perivascular and parenchymal inflammation; also recorded: multiple perivascular infiltrates”. For the same substance, the “effect on human T cell activation and proliferation” value [2] was “comparable effect” and the “induction of EAE” value ([3]; background, literature) was “induce EAE”.
